One may read the pIC50 as −log10 of the IC50, conventionally taken in molar units. A word on the inhibition: it is the change of the read-out against control, counted positive when it falls.

The record followed here is patent publication US20180057505A1, “BICYCLIC HETEROARYL COMPOUNDS USEFUL AS INHIBITORS OF THE PAR-2 SIGNALING PATHWAY” (VERTEX PHARMACEUTICALS INCORPORATED, priority 2015, published 2018).

What all share (assay type): cell-based
The subject of assay [1] is Thrombin-stimulated Ca2+ response in HT-29 cells. Description: Ca FLIPR TETRA assay, ANTAGONIST mode, activator 1 U/mL Thrombin. Particulars: HT-29 cells, activator 1 U/mL Thrombin. Here is the method:
(§1) Protocol for Testing PAR2 Compounds in ANTAGONIST Mode Using the Ca FLIPR^TETRA Assay (384 Well).
(§2) 23000 HT-29 cells (ATCC# HTB-38) were plated in 384-well black, transparent-flat bottom plates and incubated in 25 uL of 1% FBS/McCoy's media ON at 37° C. under an atmosphere of 5% CO2. The following day, 25 uL FLIPR calcium 5 Molecular Devices assay reagent (Cat: R-8186) was added. Plates were incubated at 37° C. and r. t. for 45 min and 15 min, respectively. Compounds dilutions were prepared in 100% DMSO using a Biomek FX and diluted 20-fold in HBSS and then 5.5 uL was added directly to the cells by the FLIPR^TETRA (10× dilution) using FLIPR Tetra Pipette tips, black, non-sterile, 384 Molecular Devices (Cat: 9000-0764).
(§3) A first read was performed to determine whether the test compounds on their own can activate Ca^2+ responses. The cells were incubated with the compounds for 30 min at r. t. and then read in ANTAGONIST mode in the same plate by stimulating with 6.2 uL of a fixed concentration of the activator: final concentrations 8 μM SLIGKV, 1 U/mL Thrombin, 3.1 U/mL trypsin, or 0.6 μM UTP.

The target of assay [2] is T1, PAR2 (HT-29 cells) (Homo sapiens, UniProt P55085).
T1 construct: host or cells: HT-29
T1 sequence (P55085 26-397): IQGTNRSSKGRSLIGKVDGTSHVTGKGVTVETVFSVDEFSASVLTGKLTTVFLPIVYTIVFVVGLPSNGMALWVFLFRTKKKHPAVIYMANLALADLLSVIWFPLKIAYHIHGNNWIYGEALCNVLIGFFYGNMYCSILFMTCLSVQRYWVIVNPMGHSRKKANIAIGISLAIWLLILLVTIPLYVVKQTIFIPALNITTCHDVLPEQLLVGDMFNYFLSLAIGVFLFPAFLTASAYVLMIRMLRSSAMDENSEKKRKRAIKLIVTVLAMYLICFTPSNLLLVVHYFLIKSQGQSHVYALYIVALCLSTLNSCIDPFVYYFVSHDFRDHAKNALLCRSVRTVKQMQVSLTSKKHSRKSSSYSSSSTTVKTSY
Description: Ca FLIPR TETRA assay, ANTAGONIST mode, activator 3.1 U/mL trypsin. Particulars: HT-29 cells, activator 3.1 U/mL trypsin. As for the experimental part: as §1, §2, §3

For assay [3], the target named is T1, PAR2 (HT-29 cells). Description: Ca FLIPR TETRA assay, ANTAGONIST mode, activator 8 μM SLIGKV. Particulars: HT-29 cells, activator 8 μM SLIGKV. As for the experimental part:
as §1, §2, §3

Assay [4] deals with UTP-stimulated Ca2+ response in HT-29 cells. Description: Ca FLIPR TETRA assay, ANTAGONIST mode, activator 0.6 μM UTP. Conditions: for pIC50: HT-29 cells, activator 0.6 μM UTP. Here is the method: as §1, §2, §3
Where [5] appears, read: maximal antagonist concentration per Method (A: 0.1, 1 or 2 μM; B: 50 μM).
[6] abbreviates: Method A: maximal concentration of antagonist 0.1, 1 or 2 μM.

SMILES strings stand for the structures. pIC50: −log10 of the molar value.

Consider `CC(C)c1cc(-c2ccc(F)cc2)nc2cc(C(=O)N3CCN(C(=O)C4CC4(F)F)CC3(C)C)oc12` (single isomer, unassigned) [Example I-76], for which the pIC50 in assay [1] was < 4.30; on PAR2 (HT-29 cells) [2] (setting [5]), 7.00; on PAR2 (HT-29 cells) [3] (setting [5]), 7.48. In assay [4] (@ 50 (μM)), the “UTP, % @ 50” value was found to be 56% @ 50.

Regarding `CC(CC(=O)N1CCN(C(=O)c2cc3nc(-c4ccc(Cl)c(F)c4)cc(C(C)(C)C)c3o2)C(C)(C)C1)C(=O)O` (single isomer, unassigned) [Example I-513], the pIC50 in assay [1] (Homo sapiens) is < 5.70; at PAR2 (HT-29 cells) [2] (setting [6]) it was 8.77; on PAR2 (HT-29 cells) [3] (setting [6]), 8.92; in assay [4] (Homo sapiens) it was < 5.70.

`CC(CC(=O)N1CCN(C(=O)c2cc3nc(-c4ccc(Cl)c(F)c4)cc(C(C)(C)C)c3o2)C(C)(C)C1)C(=O)O` (single isomer, unassigned) [Example I-514]: the negative logarithm of the IC50 (pIC50) is < 5.70 in assay [1], 8.96 on PAR2 (HT-29 cells) [2] (setting [6]) and 8.89 on PAR2 (HT-29 cells) [3] (setting [6]).

On to `CC(C)c1cc(-c2ccc(F)cc2)nc2cc(C(=O)N3CCN(C(=O)C(C)(C)O)CC3(C)C)oc12` [Example I-1], for which the pIC50 in assay [1] (Homo sapiens) was 4.72; on PAR2 (HT-29 cells) [2] (setting [5]), 7.19; at PAR2 (HT-29 cells) [3] (setting [5]) it was 7.17; in assay [4] (Homo sapiens), 4.70.

For the compound `CC(C)(C)OC(=O)N1CCN(C(=O)c2cc3nc(-c4ccc(F)cc4)cc(Cl)c3o2)C(C)(C)C1` [Example I-2], the negative logarithm of the IC50 (pIC50) in assay [1] (Homo sapiens) is < 4.30; on PAR2 (HT-29 cells) [2] (setting [5]), 7.54; on PAR2 (HT-29 cells) [3] (setting [5]), 7.66; in assay [4] (Homo sapiens), < 4.30.

`Cc1cc(-c2ccc(F)cc2)nc2cc(C(=O)N3CCN(C(=O)C(C)(C)O)CC3(C)C)oc12` [Example I-3]: the pIC50 in assay [1] (Homo sapiens) is 4.59; at PAR2 (HT-29 cells) [2] (setting [5]) it was 6.09; on PAR2 (HT-29 cells) [3] (setting [5]), 6.15; in assay [4] (Homo sapiens), 4.74.

In the case of `CCc1cc(-c2ccc(F)cc2)nc2cc(C(=O)N3CCN(C(=O)C(C)(C)O)CC3(C)C)oc12` [Example I-4], the pIC50 in assay [1] (Homo sapiens) is 5.08; on PAR2 (HT-29 cells) [2] (setting [5]), 6.72; on PAR2 (HT-29 cells) [3] (setting [5]) it was 6.68; in assay [4] (Homo sapiens), 4.92.

On to `CC(C)(O)C(=O)N1CCN(C(=O)c2cc3nc(-c4ccc(F)cc4)cc(C4CC4)c3o2)C(C)(C)C1` [Example I-5], for which the negative-log IC50 (pIC50) is 4.96 in assay [1] (Homo sapiens), 6.80 on PAR2 (HT-29 cells) [2] (setting [5]), 6.92 at PAR2 (HT-29 cells) [3] (setting [5]) and 5.06 in assay [4] (Homo sapiens).

For the compound `CC(C)c1cc(-c2ccc(F)cc2)nc2cc(C(=O)N3CCN(C(=O)OC(C)(C)C)CC3(C)C)oc12` [Example I-6], the pIC50 in assay [1] (Homo sapiens) is < 4.30; on PAR2 (HT-29 cells) [2] (setting [5]) it was 8.38; at PAR2 (HT-29 cells) [3] (setting [5]) it was 8.49; in assay [4] (Homo sapiens), 4.44.

Regarding `CC(C)c1cc(-c2ccc(F)cc2)nc2cc(C(=O)N3CCNC(=O)C3(C)C)oc12` [Example I-7], the pIC50 in assay [1] (Homo sapiens) is 5.51; on PAR2 (HT-29 cells) [2] (setting [5]) it was 7.70; on PAR2 (HT-29 cells) [3] (setting [5]), 7.64; in assay [4] (Homo sapiens), 5.57.

Consider `CC(C)c1cc(-c2ccc(F)cc2)nc2cc(C(=O)N3CCN(C(=O)C4(O)CCC4)CC3(C)C)oc12` [Example I-8], for which the pIC50 is 5.44 in assay [1] (Homo sapiens), 7.55 at PAR2 (HT-29 cells) [2] (setting [5]), 7.54 on PAR2 (HT-29 cells) [3] (setting [5]) and 4.70 in assay [4] (Homo sapiens).

Turning to `CC(C)c1cc(-c2ccc(F)cc2)nc2cc(C(=O)N3CCN(C(=O)CC#N)CC3(C)C)oc12` [Example I-9], the pIC50 was 5.02 in assay [1] (Homo sapiens), 7.08 on PAR2 (HT-29 cells) [2] (setting [5]), 7.05 on PAR2 (HT-29 cells) [3] (setting [5]) and 5.35 in assay [4] (Homo sapiens).

On to `CC(C)c1cc(-c2ccc(F)cc2)nc2cc(C(=O)N3CCN(C(=O)C4CCCO4)CC3(C)C)oc12` (stereo not shown) [Example I-10], for which the pIC50 was 4.82 in assay [1] (Homo sapiens), 7.57 on PAR2 (HT-29 cells) [2] (setting [5]), 7.64 at PAR2 (HT-29 cells) [3] (setting [5]) and 4.80 in assay [4] (Homo sapiens).

In the case of `CC(C)c1cc(-c2ccc(F)cc2)nc2cc(C(=O)N3CCN(C(=O)c4ccccc4)CC3(C)C)oc12` [Example I-11], the pIC50 was 5.85 in assay [1] (Homo sapiens), 8.46 on PAR2 (HT-29 cells) [2] (setting [5]) and 8.62 on PAR2 (HT-29 cells) [3] (setting [5]). In addition, in assay [4] (Homo sapiens, HT-29, @ 50 (μM)), the inhibition at 50 µM is 59%.
